Activity calls are given as the source filed them.
Assays:
SUMO E1/E2 = SUMO E1/E2 (Homo sapiens, UniProt P63279+Q9UBE0+Q9UBT2); assay: SAR analysis of SUMOylation using HTRF in an in-Vitro dose response assay. [Related pubchem assays (depositor defined):AID2006, AID2011, AID2018, AID2069, AID2658]; type: functional
[1] = target: T1, Voltage-gated N-type calcium channel alpha-1B subunit/Amyloid beta A4 precursor protein-binding family A member 1 (Homo sapiens, UniProt Q00975+Q02410); assay: disruptors of Mint-PDZ/N-type channel peptide interaction – biochemical, HTRF, set 2, SAR follow-up (AID 434980); type: functional
[2] = target: T1, Voltage-gated N-type calcium channel alpha-1B subunit/Amyloid beta A4 precursor protein-binding family A member 1; assay: disruptors of Mint-PDZ/N-type channel peptide interaction – biochemical, HTRF, SAR follow-up (AID 2489); type: functional
Aspartyl aminopeptidase = Aspartyl aminopeptidase (Plasmodium falciparum 3D7, UniProt Q8I2J3); assay: Counterscreen for inhibitors of M1 and M17 aminopeptidases: QFRET-based biochemical high throughput dose response assay for inhibitors of the Plasmodium falciparum M18 Aspartyl Aminopeptidase (PFM18AAP). [Related PubChem assays: 1619 (Screening assay (M17LAP inhibitors).), 1445 (Screening assay (M1AAP inhibitors).)]
Aminopeptidase N = target: T2, Aminopeptidase N (Plasmodium falciparum FcB1/Columbia, UniProt O96935); assay: malaria alanyl aminopeptidase activity blockers – biochemical, fluorogenic H-Leu-NHMec substrate, 1536-well (AID 1445); set-up: species or system Plasmodium falciparum 3D7, 3D7
T2 sequence (O96935 whole entry): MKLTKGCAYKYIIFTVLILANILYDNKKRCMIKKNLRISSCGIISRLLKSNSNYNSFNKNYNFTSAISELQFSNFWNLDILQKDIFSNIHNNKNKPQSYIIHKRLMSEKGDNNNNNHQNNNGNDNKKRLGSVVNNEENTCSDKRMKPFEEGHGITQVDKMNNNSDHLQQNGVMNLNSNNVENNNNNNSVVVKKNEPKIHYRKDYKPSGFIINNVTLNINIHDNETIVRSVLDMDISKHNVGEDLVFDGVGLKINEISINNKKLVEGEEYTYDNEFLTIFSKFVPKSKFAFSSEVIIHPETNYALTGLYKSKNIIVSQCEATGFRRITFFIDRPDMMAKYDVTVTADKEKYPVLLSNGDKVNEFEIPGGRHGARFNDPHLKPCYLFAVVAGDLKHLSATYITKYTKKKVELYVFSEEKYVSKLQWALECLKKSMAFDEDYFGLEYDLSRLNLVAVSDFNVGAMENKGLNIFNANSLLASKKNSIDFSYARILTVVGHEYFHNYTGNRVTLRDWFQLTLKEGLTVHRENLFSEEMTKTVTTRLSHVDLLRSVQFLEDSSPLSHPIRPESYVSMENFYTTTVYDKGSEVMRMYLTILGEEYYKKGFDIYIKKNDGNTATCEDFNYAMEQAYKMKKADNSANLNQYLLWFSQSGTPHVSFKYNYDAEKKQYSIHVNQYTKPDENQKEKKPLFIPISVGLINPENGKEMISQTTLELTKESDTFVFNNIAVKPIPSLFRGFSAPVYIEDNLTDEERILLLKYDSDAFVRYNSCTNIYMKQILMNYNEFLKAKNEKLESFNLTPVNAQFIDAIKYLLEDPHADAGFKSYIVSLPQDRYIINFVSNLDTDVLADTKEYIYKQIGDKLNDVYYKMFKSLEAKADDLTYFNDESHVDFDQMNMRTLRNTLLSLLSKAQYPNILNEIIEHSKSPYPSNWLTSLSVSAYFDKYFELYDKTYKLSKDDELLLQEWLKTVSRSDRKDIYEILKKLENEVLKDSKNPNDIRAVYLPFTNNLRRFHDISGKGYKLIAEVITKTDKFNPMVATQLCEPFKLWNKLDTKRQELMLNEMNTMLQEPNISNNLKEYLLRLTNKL

[3] = target: T3, RNA-binding protein pos-1 (Caenorhabditis elegans, UniProt G5EF15); assay: disruptors of C. elegans POS-1 RNA interaction – biochemical, fluorescence polarization, dose response (AID 1964);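 note: purified POS-1 fused to maltose binding protein made in E. coli; potency of compounds blocking POS-1 binding to fluorescent RNA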
T3 sequence (G5EF15 whole entry): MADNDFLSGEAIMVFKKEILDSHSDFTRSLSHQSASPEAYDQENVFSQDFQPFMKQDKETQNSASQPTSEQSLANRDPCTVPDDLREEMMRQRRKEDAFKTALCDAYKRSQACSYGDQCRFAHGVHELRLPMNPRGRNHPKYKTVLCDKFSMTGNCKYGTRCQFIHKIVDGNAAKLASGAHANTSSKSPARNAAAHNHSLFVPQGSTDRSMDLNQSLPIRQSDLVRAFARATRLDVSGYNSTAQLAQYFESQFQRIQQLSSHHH

[4] = target: T4, Zinc finger protein mex-5 (Caenorhabditis elegans, UniProt Q9XUB2); assay: potency of MEX-5 RNA-binding blockers – biochemical, C. elegans, fluorescence polarization, dose response (AID 1960)
T4 sequence (Q9XUB2 whole entry): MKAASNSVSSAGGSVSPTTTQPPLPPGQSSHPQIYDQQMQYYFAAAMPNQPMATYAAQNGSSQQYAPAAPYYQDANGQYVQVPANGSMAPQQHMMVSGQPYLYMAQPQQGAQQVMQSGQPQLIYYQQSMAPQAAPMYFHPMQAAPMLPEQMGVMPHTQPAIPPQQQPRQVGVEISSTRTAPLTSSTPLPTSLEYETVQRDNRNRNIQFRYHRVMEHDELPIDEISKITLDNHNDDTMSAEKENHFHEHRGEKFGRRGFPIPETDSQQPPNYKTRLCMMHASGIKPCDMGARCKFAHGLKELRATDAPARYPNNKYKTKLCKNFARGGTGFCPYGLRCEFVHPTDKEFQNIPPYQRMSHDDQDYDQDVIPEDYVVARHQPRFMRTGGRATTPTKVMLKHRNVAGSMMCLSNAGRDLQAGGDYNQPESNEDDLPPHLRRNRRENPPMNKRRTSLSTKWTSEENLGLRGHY

Procathepsin L = Procathepsin L (Homo sapiens, UniProt P07711); assay: CTSL1 protease inhibition – biochemical, QFRET, 1536-well, counter-screen for M1/M17 aminopeptidase inhibitor project, dose response (AID 2214)
[5] = target: Intestinal-type alkaline phosphatase (Mus musculus, UniProt P24822); assay: PubChem AID 488785; type: functional
[6] = target: T5, Alkaline phosphatase, tissue-nonspecific isozyme (Homo sapiens, UniProt P05186); assay: TNAP enzyme inhibition by screening hits, dose response, selectivity assay for mouse IAP inhibitor project, biochemical, human TNAP, uHTS hits (AID 488906); type: functional
T5 sequence (P05186 whole entry): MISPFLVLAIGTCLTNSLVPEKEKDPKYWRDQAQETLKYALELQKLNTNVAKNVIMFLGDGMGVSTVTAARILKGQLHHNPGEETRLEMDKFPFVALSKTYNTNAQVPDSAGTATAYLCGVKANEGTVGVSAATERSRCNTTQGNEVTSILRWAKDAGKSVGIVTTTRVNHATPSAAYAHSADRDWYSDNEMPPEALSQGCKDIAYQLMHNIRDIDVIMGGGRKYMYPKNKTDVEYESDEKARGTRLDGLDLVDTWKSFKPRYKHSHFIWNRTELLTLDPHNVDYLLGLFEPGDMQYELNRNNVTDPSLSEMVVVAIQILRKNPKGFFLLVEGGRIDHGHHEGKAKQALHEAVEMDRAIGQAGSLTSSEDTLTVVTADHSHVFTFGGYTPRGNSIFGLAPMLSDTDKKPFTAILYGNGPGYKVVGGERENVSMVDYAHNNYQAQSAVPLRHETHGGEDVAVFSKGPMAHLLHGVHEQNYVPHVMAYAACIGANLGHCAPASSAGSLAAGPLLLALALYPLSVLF

[7] = target: Intestinal-type alkaline phosphatase (Homo sapiens, UniProt P09923); assay: inhibition of human intestinal alkaline phosphatase – biochemical, dose response (AID 488876); type: functional
[8] = target: T6, Polyadenylate-binding protein 1 (Homo sapiens, UniProt P11940); assay: MLLE binding blockers, Cy5 peptide tracer – biochemical, fluorescence polarization, Cy5-PAM2 peptide, secondary, miRNA deadenylation inhibitor project, dose response (AID 602260); type: functional; conditions: read-out: IC50_Mean
[9] = target: T6, Polyadenylate-binding protein 1; assay: MLLE domain peptide-binding blockers, IC50 – biochemical, fluorescence polarization, FITC-PAM2 peptide, dose response (AID 602259); type: functional; conditions: read-out: IC50_Mean

T6 sequence (P11940 whole entry, the tested form may be a part): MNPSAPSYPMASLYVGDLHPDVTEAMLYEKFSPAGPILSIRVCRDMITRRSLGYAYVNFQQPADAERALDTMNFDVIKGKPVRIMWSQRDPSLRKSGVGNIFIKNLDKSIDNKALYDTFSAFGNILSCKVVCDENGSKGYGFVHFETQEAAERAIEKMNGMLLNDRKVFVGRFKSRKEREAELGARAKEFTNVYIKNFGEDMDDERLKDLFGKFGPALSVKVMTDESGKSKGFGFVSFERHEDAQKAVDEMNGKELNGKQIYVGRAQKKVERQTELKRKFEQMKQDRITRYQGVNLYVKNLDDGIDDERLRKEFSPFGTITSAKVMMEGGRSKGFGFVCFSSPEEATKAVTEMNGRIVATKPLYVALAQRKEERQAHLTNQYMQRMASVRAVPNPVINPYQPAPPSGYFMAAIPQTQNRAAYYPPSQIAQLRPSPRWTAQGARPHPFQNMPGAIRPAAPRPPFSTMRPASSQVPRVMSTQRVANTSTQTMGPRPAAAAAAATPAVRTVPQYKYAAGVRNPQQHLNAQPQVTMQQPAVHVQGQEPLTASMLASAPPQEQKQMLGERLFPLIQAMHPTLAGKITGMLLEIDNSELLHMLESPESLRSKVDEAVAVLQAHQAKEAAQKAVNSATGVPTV
T1 sequence (Q00975 whole entry): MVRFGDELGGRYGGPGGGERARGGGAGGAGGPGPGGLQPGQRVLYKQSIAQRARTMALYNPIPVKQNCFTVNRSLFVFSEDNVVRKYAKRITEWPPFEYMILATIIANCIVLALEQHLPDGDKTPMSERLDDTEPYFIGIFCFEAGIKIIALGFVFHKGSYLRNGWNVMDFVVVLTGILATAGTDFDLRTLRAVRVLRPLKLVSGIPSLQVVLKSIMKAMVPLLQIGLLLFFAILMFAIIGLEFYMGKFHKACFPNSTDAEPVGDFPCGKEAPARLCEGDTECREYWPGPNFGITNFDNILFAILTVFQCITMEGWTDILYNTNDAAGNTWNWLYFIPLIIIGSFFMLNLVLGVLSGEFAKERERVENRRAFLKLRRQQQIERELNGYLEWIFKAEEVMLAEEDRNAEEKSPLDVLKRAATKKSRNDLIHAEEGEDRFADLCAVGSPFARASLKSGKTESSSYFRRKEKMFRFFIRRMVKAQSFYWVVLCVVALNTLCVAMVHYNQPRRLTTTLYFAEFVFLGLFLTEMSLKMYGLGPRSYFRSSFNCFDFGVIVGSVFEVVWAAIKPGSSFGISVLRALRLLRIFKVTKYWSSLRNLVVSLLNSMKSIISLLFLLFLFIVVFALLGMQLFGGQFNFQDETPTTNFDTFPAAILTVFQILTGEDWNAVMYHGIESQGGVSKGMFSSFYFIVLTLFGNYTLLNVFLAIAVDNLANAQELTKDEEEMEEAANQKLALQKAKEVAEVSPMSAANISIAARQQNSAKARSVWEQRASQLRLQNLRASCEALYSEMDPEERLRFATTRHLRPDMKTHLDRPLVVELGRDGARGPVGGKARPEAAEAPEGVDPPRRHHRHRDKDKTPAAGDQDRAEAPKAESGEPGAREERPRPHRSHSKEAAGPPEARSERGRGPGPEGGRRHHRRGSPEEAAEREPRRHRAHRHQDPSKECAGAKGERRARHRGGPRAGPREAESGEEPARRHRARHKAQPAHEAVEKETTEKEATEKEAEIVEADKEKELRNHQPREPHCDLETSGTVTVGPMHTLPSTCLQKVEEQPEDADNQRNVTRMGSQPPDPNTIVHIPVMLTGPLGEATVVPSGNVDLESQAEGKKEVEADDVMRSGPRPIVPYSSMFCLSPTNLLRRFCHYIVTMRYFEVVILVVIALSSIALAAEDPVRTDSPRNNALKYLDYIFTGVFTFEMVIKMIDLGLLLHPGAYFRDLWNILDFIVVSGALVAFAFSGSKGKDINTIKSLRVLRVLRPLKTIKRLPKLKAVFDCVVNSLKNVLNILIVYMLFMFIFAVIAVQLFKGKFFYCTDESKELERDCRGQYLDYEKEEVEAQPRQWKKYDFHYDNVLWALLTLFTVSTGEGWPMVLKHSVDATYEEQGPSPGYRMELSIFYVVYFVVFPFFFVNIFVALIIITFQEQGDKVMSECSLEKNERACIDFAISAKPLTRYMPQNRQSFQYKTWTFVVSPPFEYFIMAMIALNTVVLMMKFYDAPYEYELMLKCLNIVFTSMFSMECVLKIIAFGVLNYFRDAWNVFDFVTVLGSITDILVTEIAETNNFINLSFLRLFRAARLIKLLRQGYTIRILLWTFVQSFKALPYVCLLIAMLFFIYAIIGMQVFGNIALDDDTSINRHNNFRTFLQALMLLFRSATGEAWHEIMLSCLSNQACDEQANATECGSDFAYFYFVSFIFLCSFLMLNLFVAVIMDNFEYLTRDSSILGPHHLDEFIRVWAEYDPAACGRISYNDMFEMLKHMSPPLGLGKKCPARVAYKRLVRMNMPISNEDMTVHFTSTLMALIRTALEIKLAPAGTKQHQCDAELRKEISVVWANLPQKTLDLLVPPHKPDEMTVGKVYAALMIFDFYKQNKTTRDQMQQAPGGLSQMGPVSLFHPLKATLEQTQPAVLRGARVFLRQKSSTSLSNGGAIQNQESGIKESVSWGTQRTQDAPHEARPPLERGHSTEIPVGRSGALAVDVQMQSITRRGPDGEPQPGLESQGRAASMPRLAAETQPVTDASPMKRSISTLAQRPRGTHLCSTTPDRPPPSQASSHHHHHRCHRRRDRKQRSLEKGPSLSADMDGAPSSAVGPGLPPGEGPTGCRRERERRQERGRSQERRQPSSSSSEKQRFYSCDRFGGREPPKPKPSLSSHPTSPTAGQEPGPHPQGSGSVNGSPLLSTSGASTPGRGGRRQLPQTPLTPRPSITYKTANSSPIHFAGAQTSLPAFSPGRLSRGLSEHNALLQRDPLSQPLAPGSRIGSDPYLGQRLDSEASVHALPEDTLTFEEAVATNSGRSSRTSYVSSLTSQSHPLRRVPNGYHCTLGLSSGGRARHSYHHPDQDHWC
T1 sequence (Q02410 whole entry): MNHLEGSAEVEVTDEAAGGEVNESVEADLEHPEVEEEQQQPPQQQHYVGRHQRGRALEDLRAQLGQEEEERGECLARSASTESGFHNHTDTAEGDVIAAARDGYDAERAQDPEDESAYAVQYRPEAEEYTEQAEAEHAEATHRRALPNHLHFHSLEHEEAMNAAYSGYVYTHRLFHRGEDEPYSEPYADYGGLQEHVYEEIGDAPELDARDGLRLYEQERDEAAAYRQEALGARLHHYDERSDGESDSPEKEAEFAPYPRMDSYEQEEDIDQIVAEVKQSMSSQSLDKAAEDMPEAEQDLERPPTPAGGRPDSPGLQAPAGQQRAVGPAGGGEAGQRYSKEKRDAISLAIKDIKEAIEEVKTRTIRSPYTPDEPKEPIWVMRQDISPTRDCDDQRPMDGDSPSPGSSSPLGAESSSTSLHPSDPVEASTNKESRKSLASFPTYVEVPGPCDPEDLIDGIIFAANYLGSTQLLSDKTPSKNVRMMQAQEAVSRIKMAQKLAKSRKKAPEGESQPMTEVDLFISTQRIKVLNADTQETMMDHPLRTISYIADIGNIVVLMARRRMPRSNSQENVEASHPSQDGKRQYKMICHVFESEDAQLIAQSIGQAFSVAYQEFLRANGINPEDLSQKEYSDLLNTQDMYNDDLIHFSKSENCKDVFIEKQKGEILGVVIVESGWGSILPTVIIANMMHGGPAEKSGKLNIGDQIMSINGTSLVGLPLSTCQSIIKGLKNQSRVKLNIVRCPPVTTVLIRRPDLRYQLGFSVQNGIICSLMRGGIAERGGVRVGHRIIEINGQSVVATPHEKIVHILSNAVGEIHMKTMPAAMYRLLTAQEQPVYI
Sequence of SUMO E1/E2 (Q9UBE0 whole entry): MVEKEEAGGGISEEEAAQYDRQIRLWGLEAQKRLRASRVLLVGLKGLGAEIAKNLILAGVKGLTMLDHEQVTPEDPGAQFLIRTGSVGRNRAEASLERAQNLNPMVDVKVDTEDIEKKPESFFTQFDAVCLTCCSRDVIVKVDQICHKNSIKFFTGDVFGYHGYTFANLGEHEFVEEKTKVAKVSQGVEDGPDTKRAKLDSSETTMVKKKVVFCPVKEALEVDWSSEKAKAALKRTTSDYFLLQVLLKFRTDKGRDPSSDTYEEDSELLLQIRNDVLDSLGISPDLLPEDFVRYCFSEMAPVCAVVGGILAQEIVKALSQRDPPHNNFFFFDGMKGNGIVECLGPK
Sequence of SUMO E1/E2 (Q9UBT2 whole entry): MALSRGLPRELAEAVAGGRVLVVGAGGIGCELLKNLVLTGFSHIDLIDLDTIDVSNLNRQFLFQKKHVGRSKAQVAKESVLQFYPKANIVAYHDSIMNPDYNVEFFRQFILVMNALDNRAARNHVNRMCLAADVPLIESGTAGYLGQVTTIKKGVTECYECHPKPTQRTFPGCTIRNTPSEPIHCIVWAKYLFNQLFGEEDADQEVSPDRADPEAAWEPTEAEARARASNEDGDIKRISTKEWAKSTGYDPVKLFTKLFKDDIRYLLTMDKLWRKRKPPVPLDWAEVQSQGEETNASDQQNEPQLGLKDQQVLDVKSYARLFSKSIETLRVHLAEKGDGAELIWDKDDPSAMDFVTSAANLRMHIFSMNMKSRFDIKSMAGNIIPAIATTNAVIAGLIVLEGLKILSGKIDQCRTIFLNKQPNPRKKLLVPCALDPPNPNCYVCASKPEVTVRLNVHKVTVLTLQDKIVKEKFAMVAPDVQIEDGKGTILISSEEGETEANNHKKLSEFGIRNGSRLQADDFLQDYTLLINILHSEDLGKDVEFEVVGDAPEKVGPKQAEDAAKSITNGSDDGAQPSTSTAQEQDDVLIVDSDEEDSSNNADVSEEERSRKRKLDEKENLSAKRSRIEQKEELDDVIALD
Sequence of SUMO E1/E2 (P63279 whole entry): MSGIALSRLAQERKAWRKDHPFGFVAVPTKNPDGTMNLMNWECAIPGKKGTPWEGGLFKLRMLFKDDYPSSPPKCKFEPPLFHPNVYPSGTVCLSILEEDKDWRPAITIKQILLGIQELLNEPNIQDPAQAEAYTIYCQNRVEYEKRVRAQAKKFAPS

Row | IC50 (SUMO E1/E2) | IC50 [1] | IC50 [2] | IC50 (Aspartyl aminopeptidase) | IC50 (Aminopeptidase N) | EC50 [3] | EC50 [4] | IC50 (Procathepsin L) | IC50 [5] | IC50 [6] | IC50 [7] | IC50 [8] | IC50 [9] | Structure (SMILES)
1 | 11.5 µM (active) | 12.2 µM (active) | 32.9 µM (active) | – | – | – | – | – | – | – | – | – | – | COc1ccc(CCNC(=O)COC(=O)c2cc(-c3ccco3)nc3ccccc23)cc1
2 | – | – | – | 25 µM (not active) | 9.43 µM (active) | 7.47 µM (active) | 5.31 µM (active) | > 59.6 µM (not active) | 53.5 µM (active) | > 100 µM (inactive) | > 100 µM (inactive) | > 66 µM (inactive) | > 66 µM (inactive) | CCN1C(=O)/C(=C2\SC(=S)N(NC(=O)c3ccccc3O)C2=O)c2ccccc21
